Test results published in patent publication US20240287070A1, “FUSED HETEROCYCLIC DERIVATIVES” (Janssen Sciences Ireland Unlimited Company, priority 2021, published 2024).

How the values were obtained:
[1] = tested on: HBV (HepG2.117 cell line, inducibly HBV producing); test: Anti-HBV activity, intracellular HBV DNA by real-time PCR in HepG2.117 cell line; assay type: cell-based, hepatitis B virus; details: HepG2.117 cells, 3 days of treatment
Method in brief: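 Inducible HBV-producing HepG2.117 line (Tet-off); 3-day exposure to serially diluted compound after induction; real-time PCR of intracellular viral DNA.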

[2] = Human liver microsome stability; assay type: in vitro ADME; details: pooled human liver microsomes 0.5 mg/mL, 1 μM compound, NADPH 1 mM, 37° C., 0-60 min
Method in brief: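 Single incubations with human liver microsomes started with 1 mM NADPH; samples taken at 0, 5, 10, 20, 40 and 60 min, quenched in acetonitrile (1:3). Cassette LC-MS analysis with internal standard; t½ derived from slope of ln peak-area ratio versus time (k = −gradient).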

HepG2 or HepG2.117 cells = test: Cytotoxicity, ATPlite Luminescence Assay; assay type: cell-based, human; details: 3-days incubation unless marked with *
Method in brief: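 Cells were exposed to compounds for 3 or 4 days, after which viability was determined by ATP-based luminescence (ATPlite).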

Compound	EC50 [1]	HLM Metabolism t1/2 [2]	CC50 (HepG2 or HepG2.117 cells)
CC(c1ccc(C(C)(C)O)nc1)N1C[C@@H](C)n2nc3c(c2C1=O)CN(C(=O)c1ccc(Cl)c(F)c1)[C@H](C)C3 (single isomer, unassigned) [Compound 59B, (3R,7R)-2-(4-chloro-3-fluorobenzoyl)-9-((S*)-1-(6-(2-hydroxypropan-2-yl)pyridin-3-yl)ethyl)-3,7-dimethyl-1,2,3,4,8,9-hexahydropyrido[4′,3′:3,4]pyrazolo[1,5-a]pyrazin-10(7H)-one]	0.055 µM	>3 h	> 50 µM
CC(c1ccc(C2(O)CC2)cc1)N1C[C@@H](C)n2nc3c(c2C1=O)CN(C(=O)c1ccc(Cl)c(C#N)c1)[C@H](C)C3 (single isomer, unassigned) [Compound 14B, 2-Chloro-5-((3R,7R)-9-((S*)-1-(4-(1-hydroxycyclopropyl)phenyl)ethyl)-3,7-dimethyl-10-oxo-1,2,3,4,7,8,9,10-octahydropyrido[4′,3′:3,4]pyrazolo[1,5-a]pyrazine-2-carbonyl)benzonitrile]	0.015 µM	1.17 h	> 50 µM
CC(c1ccc(-n2cncn2)nc1)N1C[C@@H](C)n2nc3c(c2C1=O)CN(C(=O)c1ccc(Cl)c(Cl)c1)[C@H](C)C3 (single isomer, unassigned) [Compound 5B, (3R,7R)-9-((S*)-1-(6-(1H-1,2,4-triazol-1-yl)pyridin-3-yl)ethyl)-2-(3,4-dichlorobenzoyl)-3,7-dimethyl-1,2,3,4,8,9-hexahydropyrido[4′,3′:3,4]pyrazolo[1,5-a]pyrazin-10(7H)-one]	0.017 µM	2.08 h	28.4 µM
CC(c1cnc(C(C)(C)O)nc1)N1C[C@@H](C)n2nc3c(c2C1=O)CN(C(=O)c1ccc(Cl)c(C(F)(F)F)c1)[C@H](C)C3 (single isomer, unassigned) [Compound 35B, (3R,7R)-2-(4-chloro-3-(trifluoromethyl)benzoyl)-9-((S*)-1-(2-(2-hydroxypropan-2-yl)pyrimidin-5-yl)ethyl)-3,7-dimethyl-1,2,3,4,8,9-hexahydropyrido[4′,3′:3,4]pyrazolo[1,5-a]pyrazin-10(7H)-one]	0.01 µM	>3 h	> 50 µM
C[C@@H]1Cc2nn3c(c2CN1C(=O)c1ccc(Cl)c(C(F)(F)F)c1)C(=O)N([C@@H](C)c1ccc([S@](C)(=O)=NC#N)cc1)C[C@H]3C (relative stereo) [Compound 20D, N—((S*)-(4-((S*)-1-((3R,7R)-2-(4-chloro-3-(trifluoromethyl)benzoyl)-3,7-dimethyl-10-oxo-1,3,4,7,8,10-hexahydropyrido[4′,3′:3,4]pyrazolo[1,5-a]pyrazin-9(2H)-yl)ethyl)phenyl)(methyl)(oxo)-16-sulfaneylidene)cyanamide]	0.032 µM	1.47 h	> 50 µM
C[C@@H]1Cc2nn3c(c2CN1C(=O)c1ccc(Cl)c(C(F)(F)F)c1)C(=O)N([C@H](C)c1ccc([S@](C)(=O)=NC#N)cc1)C[C@H]3C (relative stereo) [Compound 20B, N—((S*)-(4-((R*)-1-((3R,7R)-2-(4-chloro-3-(trifluoromethyl)benzoyl)-3,7-dimethyl-10-oxo-1,3,4,7,8,10-hexahydropyrido[4′,3′:3,4]pyrazolo[1,5-a]pyrazin-9(2H)-yl)ethyl)phenyl)(methyl)(oxo)-16-sulfaneylidene)cyanamide]	0.089 µM	2.6 h	> 50 µM
CC(c1cc(F)ccn1)N1C[C@@H](C)n2nc3c(c2C1=O)CN(C(=O)c1ccc(Cl)c(Cl)c1)[C@H](C)C3 (single isomer, unassigned) [Compound 32B]	0.088 µM	2.23 h	> 50 µM
